Test results published in patent publication US6653529B2, “Use of the maize X112 mutant ahas 2 gene and imidazolinone herbicides for selection of transgenic monocots, maize, rice and wheat plants resistant to the imidazolinone herbicides” (BASF Aktiengesellschaft, priority 2000, dated 2003).
Values joined by “and” are separate entries in the source; they are usually repeats but may differ in a detail not shown here. Equal entries are not always repeated.

Key:
[1] = system: 8692 (wild type control corn line); experiment: Greenhouse spray test of corn lines with imidazolinone herbicides, injury score; format: in vivo; details: for Score, individual plants (0 dead plants, 5 healthy plants with no injury): 16 days after treatment; for M.S.: score 0 (dead) to 5 (healthy), 16 days
[2] = system: AHAS (acetohydroxyacid synthase) in extracts of Nortai, Line 26 and Line 29; experiment: In vitro AHAS activity assay; format: biochemical, rice; details: a significant portion of the enzyme activity; compared with normal enzyme from Nortai; FIG. 2
Experimental: Previously published procedures were used for the extraction and in vitro assay for AHAS activity (Singh et al. 1988). Lower portions of the shoots were used as the source of plant tissue for the assay. The desalted crude extracts were used for the in vitro enzyme assays. Acetolactate produced by the enzyme was converted to acetoin, which was measured by the Westerfield assay system.
In vitro AHAS assays were performed to understand the basis of herbicide tolerance in the transgenic plants. Previously published procedure was used for the extraction and in vitro assay for AHAS activity (Singh et al. 1988). The lower portions of the shoots were used as the source of plant tissue for the assay. The desalted crude extracts were used for the in vitro enzyme assays. Acetolactate produced by the enzyme was converted to acetoin, which was measured by the Westerfield assay system (Westerfield 1945). The specific activity of AHAS was about 30% higher in Line 26 (67 nmoles/mg protein/h) and Line 29 (64 nmoles/mg protein/h) compared to the activity in Nortai (Nt) (50 nmoles/mg protein/h).

[3] = system: rice plants (transgenic Lines 26 and 29; Nt control); experiment: Greenhouse herbicide tests on rice; format: in vivo; details: for average seed set in two transgenic lines: PURSUIT, RAPTOR, CADRE, SCEPTER at all rates tested, ARSENAL 1 to 2×; for rate at which growth of transgenic plants was slightly affected: post-emergence, fresh weight and visual observation
Excerpt: We evaluated the response of transgenic rice to PURSUIT® imazethapyr application in the greenhouse. In this experiment, we included 2 transgenic lines and their untransformed counterpart (Nt). The transgenic lines, designated as Line 26 and 29, were T3 progeny derived from previously identified homozygous resistant transgenic plants containing the maize XI12 ahas2 gene driven by its own promoter. All seeds were pre-germinated in water for 2-3 days then grown in a planting mixture consisting of 1:1 soil and MetroMix 360 (The Scotts Company, Marysville, Ohio 43040) in 6-inch pots (2 seeds per pot) in the greenhouse and sprayed with PURSUIT® imazethapyr at 63, 125, or 250 g ai/ha. For post-emergence application, the plants were sprayed 15 days after seeding, at which time most plants had 3 leaves. For pre-emergence treatment, PURSUIT® imazethapyr was sprayed one day after seeding. Each treatment contained 20 plants and, and 3 replicates per treatment. One set of materials was not sprayed and used as control. The plants were grown in the greenhouse and harvested at maturity. The amount of PURSUIT® imazethapyr applied in this study (63, 125, or 250 g ai/ha) was close to 1, 2 or 4× field application rate for imi-resistant corn (refer to Table 3) since PURSUIT® imazethapyr is not currently labeled for use in rice fields. A custom designed belt sprayer was operated as described (Newhouse et al. 1992) for all herbicide applications. Five plants from each treatment were randomly chosen and individually measured for morphological traits. Means and standard deviations were calculated over three replications. Plant heights were measured from the base of the plant to the tip of the flag leaf 93 days after herbicide applications (DAH) and number of tillers per plant were counted 102-103 DAH. Data on number of panicles per plant and yield were collected after plants were harvested.
A total of 9 herbicides, 5 imidazolinones, two rice herbicides and ACCENT® (nicosulfuron) and CLASSIC® (clorimuron-ethyl) were applied in this study. Materials and methods were basically the same as described above, except that instead of 6″ pots, flats with 18 (3″×3″ per cell) cells were used, and 10-12 seeds were planted to one 3″×3″ cell. Ten plants were maintained in one cell in the post-emergence application. Each herbicide was sprayed at 4 different rates, 1, 2, 4, and 6×, as either pre or post-emergence applications with three replications per treatment. The name and amount of herbicide applied in this experiment and information relevant to their commercial applications are listed in Table 3. For simplicity and convenience, the lowest concentration used is referred as 1× rate, 2, 4 and 6× rates can be calculated as multiples of 1×.
To monitor plant response to various herbicides, data on fresh weight was collected. For pre-emergence applications, all plants from one cell were harvested 32 days after spraying (36-day old plants) and weighed. Twenty-nine days after herbicide application, 5 plants (44-day old plants) from each cell in the post-emergence application, were cut and weighed individually. Mean fresh weight for each treatment was calculated over three replications. The remaining 5 plants were grown in the greenhouse to maturity at which time, panicles of 3 plants were collected, and number of filled seeds and number of total kernels were counted to determine percentage of seed set.

[4] = system: transgenic rice Line 26 (maize XI12 ahas2 gene); experiment: Greenhouse spray test of rice with PURSUIT imazethapyr (pre- and post-emergence); format: in vivo
[5] = 4×: PURSUIT 250, RAPTOR 160, ARSENAL 96, CADRE 400 g/ha
[6] = 8×: PURSUIT 500, RAPTOR 320, ARSENAL 192, CADRE 800 g/ha
[7] = 16×: RAPTOR 640 g/ha, ARSENAL 384 g/ha, CADRE 1.6 kg/ha
[8] = post-emergence, Rate 63 (g ai/ha)
[9] = post-emergence, Rate 125 (g ai/ha)
[10] = post-emergence, Rate 250 (g ai/ha)

CC(C)C1(C)N=C(c2ncccc2C(=O)O)NC1=O (centres unmarked) [ARSENAL ®, imazapyr]
Score, individual plants (0 dead plants, 5 healthy plants with no injury) [1, 5]: 0 | M.S. [1, 5]: 0 | Score, individual plants (0 dead plants, 5 healthy plants with no injury) [1, 6]: 0 | M.S. [1, 6]: 0 | Score, individual plants (0 dead plants, 5 healthy plants with no injury) [1, 7]: 0 | M.S. [1, 7]: 0 | inhibition of AHAS activity from tolerant Line 26 and Line 29 [2]: insensitive to inhibition | seed set in the two transgenic lines ([3]; 4× (96 g ai/ha) and 6× (144 g ai/ha)): ≤ 20% | average seed set in two transgenic lines [3]: about 85% | effect on seed set of transgenic plants ([3]; higher rates): severe sterility | rate at which growth of transgenic plants was slightly affected [3]: 6 ×

Cc1cnc(C2=NC(=O)C(C)(C(C)C)N2)c(C(=O)O)c1 (centres unmarked) [CADRE ®, imazameth]
Score, individual plants (0 dead plants, 5 healthy plants with no injury) [1, 5]: 0 | M.S. [1, 5]: 0 | Score, individual plants (0 dead plants, 5 healthy plants with no injury) [1, 6]: 0 | M.S. [1, 6]: 0 | Score, individual plants (0 dead plants, 5 healthy plants with no injury) [1, 7]: 0 | M.S. [1, 7]: 0 | average seed set in two transgenic lines [3]: about 85% | rate at which growth of transgenic plants was slightly affected [3]: 6 ×

CCc1cnc(C2=NC(C)(C(C)C)C(=O)N2)c(C(=O)O)c1 (centres unmarked) [PURSUIT ®, imazethapyr]
No. panicles/plant Mean [4, 8]: 25.3 | No. tillers/plant Mean [4, 8]: 27.1 | Plant height Mean [4, 8]: 110.1 cm | Yield % 0× [4, 8]: 98 % 0× | Yield Mean [4, 8]: 206.7 g/5 plants | No. panicles/plant Mean [4, 9]: 22.8 | No. tillers/plant Mean [4, 9]: 25.6 | Plant height Mean [4, 9]: 108.1 cm | Yield % 0× [4, 9]: 98 % 0× | Yield Mean [4, 9]: 206.0 g/5 plants | No. panicles/plant Mean [4, 10]: 21.7 | No. tillers/plant Mean [4, 10]: 25.4 | Plant height Mean [4, 10]: 110.3 cm | Yield % 0× [4, 10]: 96 % 0× | Yield Mean [4, 10]: 202.7 g/5 plants | No. panicles/plant Mean ([4]; pre-emergence, 63 g/ha): 13.2 | No. tillers/plant Mean ([4]; pre-emergence, 63 g/ha): 14.3 | Plant height Mean ([4]; pre-emergence, 63 g/ha): 92.2 cm | Yield % 0× ([4]; pre-emergence, 63 g/ha): 101 % 0× | Yield Mean ([4]; pre-emergence, 63 g/ha): 155.3 g/5 plants | No. panicles/plant Mean ([4]; pre-emergence, 125 g/ha): 14.4 | No. tillers/plant Mean ([4]; pre-emergence, 125 g/ha): 15.3 | Plant height Mean ([4]; pre-emergence, 125 g/ha): 89.7 cm | Yield % 0× ([4]; pre-emergence, 125 g/ha): 111 % 0× | Yield Mean ([4]; pre-emergence, 125 g/ha): 170.0 g/5 plants | No. panicles/plant Mean ([4]; pre-emergence, 250 g/ha): 15.7 | No. tillers/plant Mean ([4]; pre-emergence, 250 g/ha): 13.3 | Plant height Mean ([4]; pre-emergence, 250 g/ha): 88.5 cm | Yield % 0× ([4]; pre-emergence, 250 g/ha): 109 % 0× | Yield Mean ([4]; pre-emergence, 250 g/ha): 167.0 g/5 plants | Score, individual plants (0 dead plants, 5 healthy plants with no injury) [1, 5]: 2 (3×) and 1 (2×) | M.S. [1, 5]: 1.6 | Score, individual plants (0 dead plants, 5 healthy plants with no injury) [1, 6]: 0 | M.S. [1, 6]: 0 | Score, individual plants (0 dead plants, 5 healthy plants with no injury) ([1]; 20×: PURSUIT 1.25 kg/ha): 0 | M.S. ([1]; 20×: PURSUIT 1.25 kg/ha): 0 | inhibition of AHAS activity from tolerant Line 26 and Line 29 [2]: insensitive to inhibition | average seed set in two transgenic lines [3]: about 85% | rate at which growth of transgenic plants was slightly affected [3]: 6 × | fate of transgenic plants of Lines 26 and 29 ([3]; pre-emergence, 63, 125, 250 g/ha): survived at all rates applied

COCc1cnc(C2=NC(C)(C(C)C)C(=O)N2)c(C(=O)O)c1 (centres unmarked) [RAPTOR ®, imazamox]
Score, individual plants (0 dead plants, 5 healthy plants with no injury) [1, 5]: 0 | M.S. [1, 5]: 0 | Score, individual plants (0 dead plants, 5 healthy plants with no injury) [1, 6]: 0 | M.S. [1, 6]: 0 | Score, individual plants (0 dead plants, 5 healthy plants with no injury) [1, 7]: 0 | M.S. [1, 7]: 0 | average seed set in two transgenic lines [3]: about 85% | rate at which growth of transgenic plants was slightly affected [3]: 6 × | rate at which growth of both transgenic lines was affected ([3]; pre-emergence): 6 ×
